Columns and labels:
mouse gut microbiome = test: Mouse gut microbiome diversity in fecal pellets; type: in vivo, C57BL/6 mice; details: same regimens; day −1 vs day 7 (and 14)
E. faecium NR-31909 = test: Multi-step resistance selection assay; type: cell-based; details: after five passages

Row | change in beta diversity (Bray-Curtis dissimilarity), pre- vs post-treatment (mouse gut microbiome) | Compound | MIC increase (E. faecium NR-31909) [fold MIC]
1 | significant change | CCC[C@@H]1C[C@@H](C(=O)N[C@@H]([C@H]2O[C@H](SC)[C@H](O)[C@@H](O)[C@H]2O)[C@H](C)Cl)N(C)C1 [clindamycin] | 
2 |  | CO[C@H]1/C=C/O[C@@]2(C)Oc3c(C)c(O)c4c(O)c(c(/C=N/N5CCN(C)CC5)c(O)c4c3C2=O)NC(=O)/C(C)=C\C=C\[C@H](C)[C@H](O)[C@@H](C)[C@@H](O)[C@@H](C)[C@H](OC(C)=O)[C@@H]1C [rifampicin] | 8
